This passage reports EC50 results from patent US20250114338A1, “TETRAHYDRO-PYRIDO[3,4-b]INDOLE ESTROGEN RECEPTOR MODULATORS AND USES THEREOF” (Genentech, Inc., priority 2014, published 2025).

SMILES strings stand for the structures.

This test concerns ER-alpha MCF7. Briefly: ER-alpha MCF7 HCS EC50; stated as measured by in vitro cell proliferation assays of Examples 902 and 903. The format is cell-based. As to conditions: Homo sapiens, MCF7, MCF7 cells; Table 2. Put shortly:
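MCF7 cells seeded 1000-2000 cells/well for 16 h, then treated with nine-point 1:2 DMSO dilution series in quadruplicate at 37 °C, 5% CO2 for 4 days. Viable cells quantified by CellTiter-Glo ATP luminescence; EC50 calculated. Controls: fulvestrant at final 100 nM, DMSO 0.2% v/v.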

Usually EC50 stands for the concentration at which the effect is half-maximal. Turning to `C[C@@H]1Cc2c([nH]c3ccccc23)[C@@H](c2ccc(NCCN3CC(CF)C3)cc2)N1CC(C)(C)F` [Example 323, N-[2-[3-(fluoromethyl)azetidin-1-yl]ethyl]-4-[(1R,3R)-2-(2-fluoro-2-methyl-propyl)-3-methyl-1,3,4,9-tetrahydropyrido[3,4-b]indol-1-yl]aniline], the EC50 is 0.215 nM. As for `CCS(=O)(=O)N1[C@H](c2ccc(OCCN3CC(CF)C3)cc2)c2[nH]c3ccccc3c2C[C@H]1C` [Example 324, (1R,3R)-2-ethylsulfonyl-1-[4-[2-[3-(fluoromethyl)azetidin-1-yl]ethoxy]phenyl]-3-methyl-1,3,4,9-tetrahydropyrido[3,4-b]indole], the concentration for a half-maximal effect (EC50) stood at 0.198 nM. In the case of `C[C@@H]1Cc2c([nH]c3ccccc23)[C@@H](c2ccc(NCCN3CC(CF)C3)cc2)N1S(C)(=O)=O` [Example 325, N-[2-[3-(fluoromethyl)azetidin-1-yl]ethyl]-4-[(1R,3R)-3-methyl-2-methylsulfonyl-1,3,4,9-tetrahydropyrido[3,4-b]indol-1-yl]aniline], the EC50 stood at 1 nM.

Regarding `C[C@@H]1Cc2c([nH]c3ccccc23)[C@@H](c2c(F)cc(NCCN3CC(CF)C3)cc2F)N1S(C)(=O)=O` [Example 326, 3,5-difluoro-N-[2-[3-(fluoromethyl)azetidin-1-yl]ethyl]-4-[(1R,3R)-3-methyl-2-methylsulfonyl-1,3,4,9-tetrahydropyrido[3,4-b]indol-1-yl]aniline], the EC50 came out at 0.305 nM.

For the compound `C[C@@H]1Cc2c([nH]c3ccccc23)[C@@H](c2ccc(NCCN3CC(CF)C3)cc2F)N1CC(C)(F)CO` (stereo partly drawn) [Example 327, 2-fluoro-3-((1R,3R)-1-(2-fluoro-4-((2-(3-(fluoromethyl)azetidin-1-yl)ethyl)amino)phenyl)-3-methyl-1,3,4,9-tetrahydro-2H-pyrido[3,4-b]indol-2-yl)-2-methylpropan-1-ol], the EC50 stood at 0.347 nM. As to `C[C@@H]1Cc2c([nH]c3ccccc23)[C@@H](c2ccc(NCCN3CC(CF)C3)cc2)N1CC(C)(F)CO` (stereo partly drawn) [Example 328, 2-fluoro-3-((1R,3R)-1-(4-((2-(3-(fluoromethyl)azetidin-1-yl)ethyl)amino)phenyl)-3-methyl-1,3,4,9-tetrahydro-2H-pyrido[3,4-b]indol-2-yl)-2-methylpropan-1-ol], the EC50 came to 0.167 nM. As for `C[C@@H]1Cc2c([nH]c3ccccc23)[C@@H](c2ccc(OCCN3CC(CF)C3)cc2)N1S(=O)(=O)N(C)C` [Example 329, (1R,3R)-1-[4-[2-[3-(fluoromethyl)azetidin-1-yl]ethoxy]phenyl]-N,N,3-trimethyl-1,3,4,9-tetrahydropyrido[3,4-b]indole-2-sulfonamide], the EC50 stood at 1 nM. In the case of `C[C@@H]1Cc2c([nH]c3ccccc23)[C@@H](c2ccc(OC3CN(CCCF)C3)cc2)N1S(C)(=O)=O` [Example 330, (1R,3R)-1-[4-[1-(3-fluoropropyl)azetidin-3-yl]oxyphenyl]-3-methyl-2-methylsulfonyl-1,3,4,9-tetrahydropyrido[3,4-b]indole], the EC50 was 2 nM. On to `C[C@@H]1Cc2c([nH]c3ccccc23)[C@@H](c2c(F)cc(OC3CN([C@H]4C[C@H](O)C4)C3)cc2F)N1CC(C)(C)F` [Example 331, 3-[3-[3,5-difluoro-4-[(1R,3R)-2-(2-fluoro-2-methyl-propyl)-3-methyl-1,3,4,9-tetrahydropyrido[3,4-b]indol-1-yl]phenoxy]azetidin-1-yl]cyclobutanol], for which the EC50 was determined as 0.236 nM. On to `CC(C)[S@+]([O-])N1[C@H](c2ccc(OCCN3CC(CF)C3)cc2)c2[nH]c3ccccc3c2C[C@H]1C` [Example 332, (1R,3R)-1-(4-(2-(3-(fluoromethyl)azetidin-1-yl)ethoxy)phenyl)-2-((S)-isopropylsulfinyl)-3-methyl-2,3,4,9-tetrahydro-1H-pyrido[3,4-b]indole], for which the EC50 was determined as 8 nM. In the case of `CC(C)[S@@+]([O-])N1[C@H](c2ccc(OCCN3CC(CF)C3)cc2)c2[nH]c3ccccc3c2C[C@H]1C` [Example 333, (1R,3R)-1-(4-(2-(3-(fluoromethyl)azetidin-1-yl)ethoxy)phenyl)-2-((R)-isopropylsulfinyl)-3-methyl-2,3,4,9-tetrahydro-1H-pyrido[3,4-b]indole], the EC50 is 48 nM. On to `C[C@@H]1Cc2c([nH]c3ccccc23)[C@@H](c2c(F)cc(OC3CN([C@H]4C[C@@H](O)C4)C3)cc2F)N1CC(C)(C)F` [Example 334, (1S,3s)-3-(3-(3,5-difluoro-4-((1R,3R)-2-(2-fluoro-2-methylpropyl)-3-methyl-2,3,4,9-tetrahydro-1H-pyrido[3,4-b]indol-1-yl)phenoxy)azetidin-1-yl)cyclobutanol], for which the EC50 is 0.13 nM. For `C[C@@H]1Cc2c([nH]c3ccccc23)[C@@H](c2c(F)cc(OC3CN(CCCCCF)C3)cc2F)N1CC(C)(C)F` [Example 335, (1R,3R)-1-[2,6-difluoro-4-[1-(5-fluoropentyl)azetidin-3-yl]oxy-phenyl]-2-(2-fluoro-2-methyl-propyl)-3-methyl-1,3,4,9-tetrahydropyrido[3,4-b]indole], the EC50 was 0.442 nM. Next, `C[C@@H]1Cc2c([nH]c3ccccc23)[C@@H](c2cc(F)c(OC3CN(CCCF)C3)c(F)c2)N1CC(C)(C)F` [Example 336, (1R,3R)-1-[3,5-difluoro-4-[1-(3-fluoropropyl)azetidin-3-yl]oxy-phenyl]-2-(2-fluoro-2-methyl-propyl)-3-methyl-1,3,4,9-tetrahydropyrido[3,4-b]indole]: 0.263 nM; `C[C@@H]1Cc2c([nH]c3ccccc23)[C@@H](c2c(F)cc(OC3CN(CCCCF)C3)cc2F)N1CC(C)(C)F` [Example 337, (1R,3R)-1-[2,6-difluoro-4-[1-(4-fluorobutyl)azetidin-3-yl]oxy-phenyl]-2-(2-fluoro-2-methyl-propyl)-3-methyl-1,3,4,9-tetrahydropyrido[3,4-b]indole]: 0.387 nM. In the case of `C[C@@H]1Cc2c([nH]c3ccccc23)[C@@H](c2cc(F)c(OC3CN(CCCCCF)C3)c(F)c2)N1CC(C)(C)F` [Example 338, (1R,3R)-1-[3,5-difluoro-4-[1-(5-fluoropentyl)azetidin-3-yl]oxy-phenyl]-2-(2-fluoro-2-methyl-propyl)-3-methyl-1,3,4,9-tetrahydropyrido[3,4-b]indole], the EC50 stood at 1 nM. `C[C@@H]1Cc2c([nH]c3ccccc23)[C@@H](c2cc(F)c(OC3CN(CCCF)C3)cc2F)N1CC(C)(C)F` [Example 339, (1R,3R)-1-[2,5-difluoro-4-[1-(3-fluoropropyl)azetidin-3-yl]oxy-phenyl]-2-(2-fluoro-2-methyl-propyl)-3-methyl-1,3,4,9-tetrahydropyrido[3,4-b]indole]: the EC50 is 1 nM. Consider `C[C@@H]1Cc2c([nH]c3ccccc23)[C@@H](c2c(F)cc(NC3CN(CCCF)C3)cc2F)N1CC(F)(F)CO` [Example 340, 3-[(1R,3R)-1-[2,6-difluoro-4-[[1-(3-fluoropropyl)azetidin-3-yl]amino]phenyl]-3-methyl-1,3,4,9-tetrahydropyrido[3,4-b]indol-2-yl]-2,2-difluoro-propan-1-ol], for which the EC50 was 0.203 nM. For `C[C@@H]1Cc2c([nH]c3ccccc23)[C@@H](c2cnc(OC3CN(CCCF)C3)cn2)N1CC(C)(C)F` [Example 342, (1S,3R)-2-(2-fluoro-2-methylpropyl)-1-(5-((1-(3-fluoropropyl)azetidin-3-yl)oxy)pyrazin-2-yl)-3-methyl-2,3,4,9-tetrahydro-1H-pyrido[3,4-b]indole] the value was 0.619 nM. In the case of `C[C@@H]1Cc2c([nH]c3ccccc23)[C@@H](c2c(F)cc(OC3(C)CN(CCCF)C3)cc2F)N1CC(C)(C)F` [Example 343, (1R,3R)-1-(2,6-difluoro-4-((1-(3-fluoropropyl)-3-methylazetidin-3-yl)oxy)phenyl)-2-(2-fluoro-2-methylpropyl)-3-methyl-2,3,4,9-tetrahydro-1H-pyrido[3,4-b]indole], the EC50 came to 0.2 nM. Next, `C[C@@H]1Cc2c([nH]c3ccccc23)[C@@H](c2ccc(OC3CN(CCCF)C3)cc2C#N)N1CC(C)(C)F` [Example 344, 2-[(1R,3R)-2-(2-fluoro-2-methyl-propyl)-3-methyl-1,3,4,9-tetrahydropyrido[3,4-b]indol-1-yl]-5-[1-(3-fluoropropyl)azetidin-3-yl]oxy-benzonitrile]: 0.347 nM.

Turning to `C[C@@H]1Cc2c([nH]c3ccccc23)[C@@H](c2ccn(CCCN3CC(CF)C3)c(=O)c2)N1CC(C)(C)F` [Example 345, 4-((1R,3R)-2-(2-fluoro-2-methylpropyl)-3-methyl-2,3,4,9-tetrahydro-1H-pyrido[3,4-b]indol-1-yl)-1-(3-(3-(fluoromethyl)azetidin-1-yl)propyl)pyridin-2(1H)-one], the EC50 is 12.3 nM. As for `C[C@@H]1Cc2c([nH]c3ccccc23)[C@@H](c2ccc(C(=O)C3CN(CCCF)C3)cc2)N1CC(C)(C)F` [Example 346, [4-[(1R,3R)-2-(2-fluoro-2-methyl-propyl)-3-methyl-1,3,4,9-tetrahydropyrido[3,4-b]indol-1-yl]phenyl]-[1-(3-fluoropropyl)azetidin-3-yl]methanone], the EC50 is 0.399 nM. Regarding `C[C@H](CN1[C@H](c2c(F)cc(OCCN3CC(CF)C3)cc2F)c2[nH]c3ccccc3c2C[C@H]1C)C(N)=O` [Example 347, (R)-3-((1R,3R)-1-(2,6-difluoro-4-(2-(3-(fluoromethyl)azetidin-1-yl)ethoxy)phenyl)-3-methyl-1,3,4,9-tetrahydro-2H-pyrido[3,4-b]indol-2-yl)-2-methylpropanamide], the EC50 is 14 nM.

Take `C[C@H](CN1[C@H](c2c(F)cc(OC3CN(CCCF)C3)cc2F)c2[nH]c3ccccc3c2C[C@H]1C)C(=O)O` [Example 348, (R)-3-((1R,3R)-1-(2,6-difluoro-4-((1-(3-fluoropropyl)azetidin-3-yl)oxy)phenyl)-3-methyl-1,3,4,9-tetrahydro-2H-pyrido[3,4-b]indol-2-yl)-2-methylpropanoic acid]: the EC50 amounted to 1 nM.
